According to patent publication US20250312352A1, “GLP-1R MODULATING COMPOUNDS” (Gilead Sciences, Inc., priority 2021, published 2025):

What follows are compounds tested against T1, GLP-1R (Homo sapiens, UniProt P43220) (assay: GLP-1R activation cAMP assay (Assay 1 or Assay 2)). Conditions: cAMP increase in CHO cells stably expressing GLP-1R; compounds run on one of the two cAMP assays.
T1 construct: host or cells: CHO cells
Type: cell-based
In short: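 CHO cells stably expressing human GLP-1R were incubated 1 h in HBSS/20 mM HEPES/0.1% BSA, then exposed to 10-point agonist dilutions for 30 min at 37 °C. cAMP increase was measured with an HTRF Gs dynamic kit; EC50 from sigmoidal fit of response versus log concentration.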

T1 sequence (P43220 24-463): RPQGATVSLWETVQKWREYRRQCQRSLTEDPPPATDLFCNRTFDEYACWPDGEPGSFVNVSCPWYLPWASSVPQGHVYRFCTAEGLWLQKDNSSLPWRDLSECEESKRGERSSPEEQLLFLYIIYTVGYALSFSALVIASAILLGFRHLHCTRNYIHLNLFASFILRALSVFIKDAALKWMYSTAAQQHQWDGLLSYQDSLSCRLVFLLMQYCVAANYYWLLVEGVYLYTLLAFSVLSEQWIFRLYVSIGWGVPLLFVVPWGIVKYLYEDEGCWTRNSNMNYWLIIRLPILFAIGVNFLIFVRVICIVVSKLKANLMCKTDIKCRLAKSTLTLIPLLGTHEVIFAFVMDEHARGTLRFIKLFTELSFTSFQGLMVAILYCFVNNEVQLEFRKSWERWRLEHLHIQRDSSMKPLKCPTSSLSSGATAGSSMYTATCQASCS

| SMILES | EC50 |
| --- | --- |
| COc1ncc(C#Cc2ccc(COc3cccc(-c4cc(F)c(Cc5nc6ccc(C(=O)O)cc6n5C[C@@H]5CCO5)cc4F)n3)c(F)n2)s1 [Example 277, (S)-2-(2,5-difluoro-4-(6-((2-fluoro-6-((2-methoxythiazol-5-yl)ethynyl)pyridin-3-yl)methoxy)pyridin-2-yl)benzyl)-1-(oxetan-2-ylmethyl)-1H-benzo[d]imidazole-6-carboxylic acid] | 0.312 nM |
| COc1nnc(COc2cccc(-c3cc(F)c(Cc4nc5ccc(C(=O)O)cc5n4CC4(C(F)F)CC4)cc3F)n2)s1 [Example 276, 2-(2,5-difluoro-4-(6-((5-methoxy-1,3,4-thiadiazol-2-yl)methoxy)pyridin-2-yl)benzyl)-1-((1-(difluoromethyl)cyclopropyl)methyl)-1H-benzo[d]imidazole-6-carboxylic acid] | 1.31 nM |
| COCCn1c(Cc2cc(F)c(-c3cccc(OCc4ccc(-c5cnn(C6CC6)c5)cc4F)n3)cc2F)nc2ccc(C(=O)O)cc21 [Example 225, 2-(4-(6-((4-(1-cyclopropyl-1H-pyrazol-4-yl)-2-fluorobenzyl)oxy)pyridin-2-yl)-2,5-difluorobenzyl)-1-(2-methoxyethyl)-1H-benzo[d]imidazole-6-carboxylic acid] | 0.7 nM |
| O=C(O)c1ccc2nc(Cc3cc(F)c(-c4cccc(OCc5nnc(Cl)s5)n4)cc3F)n(C[C@@H]3CCO3)c2c1 [Example 49, (S)-2-(4-(6-((5-chloro-1,3,4-thiadiazol-2-yl)methoxy)pyridin-2-yl)-2,5-difluorobenzyl)-1-(oxetan-2-ylmethyl)-1H-benzo[d]imidazole-6-carboxylic acid] | 0.65 nM |
| O=C(O)c1ccc2nc(Cc3cc(F)c(-c4cccc(OCc5cnc(Br)s5)n4)cc3F)n(C[C@@H]3CCO3)c2c1 [Example 21, (S)-2-(4-(6-((2-bromothiazol-5-yl)methoxy)pyridin-2-yl)-2,5-difluorobenzyl)-1-(oxetan-2-ylmethyl)-1H-benzo[d]imidazole-6-carboxylic acid] | 0.41 nM |
| CC1(C)COC[C@H]1n1c(Cc2cc(F)c(-c3ccc(F)c(OCc4ncc(C(F)F)s4)n3)cc2F)nc2ccc(C(=O)O)cc21 [Example 416, (S)-2-(4-(6-((5-(difluoromethyl)thiazol-2-yl)methoxy)-5-fluoropyridin-2-yl)-2,5-difluorobenzyl)-1-(4,4-dimethyltetrahydrofuran-3-yl)-1H-benzo[d]imidazole-6-carboxylic acid] | 0.336 nM |
| Cn1ccc(C#Cc2ccc(COc3cccc(-c4cc(F)c(Cc5nc6ccc(C(=O)O)cc6n5C[C@@H]5CCO5)cc4F)n3)c(F)c2)n1 [Example 134, (S)-2-(2,5-difluoro-4-(6-((2-fluoro-4-((1-methyl-1H-pyrazol-3-yl)ethynyl)benzyl)oxy)pyridin-2-yl)benzyl)-1-(oxetan-2-ylmethyl)-1H-benzo[d]imidazole-6-carboxylic acid] | 0.6 nM |
| COc1nnc(COc2cccc(-c3cc(F)c(Cc4nc5c(F)cc(C(=O)O)cc5n4CC4(CF)CC4)cc3F)n2)s1 [Example 411, 2-(2,5-difluoro-4-(6-((5-methoxy-1,3,4-thiadiazol-2-yl)methoxy)pyridin-2-yl)benzyl)-4-fluoro-1-((1-(fluoromethyl)cyclopropyl)methyl)-1H-benzo[d]imidazole-6-carboxylic acid] | 0.315 nM |
| CCc1nnc(COc2cccc(-c3cc(F)c(Cc4nc5ccc(C(=O)O)cc5n4C[C@@H]4CCO4)cc3F)n2)s1 [Example 299, (S)-2-(4-(6-((5-ethyl-1,3,4-thiadiazol-2-yl)methoxy)pyridin-2-yl)-2,5-difluorobenzyl)-1-(oxetan-2-ylmethyl)-1H-benzo[d]imidazole-6-carboxylic acid] | 2.63 nM |
| O=C(O)c1ccc2nc(Cc3cc(F)c(-c4cccc(OCc5cc[nH]n5)n4)cc3F)n(C[C@@H]3CCO3)c2c1 [Example 181, (S)-2-(4-(6-((1H-pyrazol-3-yl)methoxy)pyridin-2-yl)-2,5-difluorobenzyl)-1-(oxetan-2-ylmethyl)-1H-benzo[d]imidazole-6-carboxylic acid] | 5.99 nM |
| Cc1cc(COc2cccc(-c3cc(F)c(Cc4nc5ccc(C(=O)O)cc5n4C[C@@H]4CCO4)cc3F)n2)nn1C [Example 72, (S)-2-(4-(6-((1,5-dimethyl-1H-pyrazol-3-yl)methoxy)pyridin-2-yl)-2,5-difluorobenzyl)-1-(oxetan-2-ylmethyl)-1H-benzo[d]imidazole-6-carboxylic acid] | 0.82 nM |
| O=C(O)c1ccc2nc(Cc3cc(F)c(-c4cccc(OCc5nccs5)n4)cc3F)n(C[C@@H]3CCO3)c2c1 [Example 11, (S)-2-(2,5-difluoro-4-(6-(thiazol-2-ylmethoxy)pyridin-2-yl)benzyl)-1-(oxetan-2-ylmethyl)-1H-benzo[d]imidazole-6-carboxylic acid] | 0.6 nM |

Further lines, results first:

| EC50 | SMILES |
| --- | --- |
| 0.262 nM | Cc1cc(C#Cc2cnn(C)c2)cnc1COc1cccc(-c2cc(F)c(Cc3nc4ccc(C(=O)O)cc4n3C[C@@H]3CCO3)cc2F)n1 [Example 289, (S)-2-(2,5-difluoro-4-(6-((3-methyl-5-((1-methyl-1H-pyrazol-4-yl)ethynyl)pyridin-2-yl)methoxy)pyridin-2-yl)benzyl)-1-(oxetan-2-ylmethyl)-1H-benzo[d]imidazole-6-carboxylic acid] |
| 0.066 nM | CCOc1nnc(COc2nc(-c3cc(F)c(Cc4nc5c(F)cc(C(=O)O)cc5n4[C@@H]4COCC4(C)C)cc3C)ccc2F)s1 [Example 422, (S)-1-(4,4-dimethyltetrahydrofuran-3-yl)-2-(4-(6-((5-ethoxy-1,3,4-thiadiazol-2-yl)methoxy)-5-fluoropyridin-2-yl)-2-fluoro-5-methylbenzyl)-4-fluoro-1H-benzo[d]imidazole-6-carboxylic acid] |
| 0.03 nM | O=C(O)c1cc(F)c2nc(Cc3cc(F)c(-c4ccc(F)c(OCc5ncc(Cl)s5)n4)cc3F)n(C[C@@H]3CCO3)c2c1 [Example 311, (S)-2-(4-(6-((5-chlorothiazol-2-yl)methoxy)-5-fluoropyridin-2-yl)-2,5-difluorobenzyl)-4-fluoro-1-(oxetan-2-ylmethyl)-1H-benzo[d]imidazole-6-carboxylic acid] |
| 0.131 nM | CCOc1nnc(COc2cccc(-c3cc(F)c(Cc4nc5ccc(C(=O)O)cc5n4[C@@H]4COCC4(C)C)c(F)c3F)n2)s1 [Example 263, (S)-1-(4,4-dimethyltetrahydrofuran-3-yl)-2-(4-(6-((5-ethoxy-1,3,4-thiadiazol-2-yl)methoxy)pyridin-2-yl)-2,3,6-trifluorobenzyl)-1H-benzo[d]imidazole-6-carboxylic acid] |
| 0.05 nM | CNC(=O)c1cc(Cl)c(COc2cccc(-c3cc(F)c(Cc4nc5ccc(C(=O)O)cc5n4CC4(CF)CC4)c(F)c3F)n2)cn1 [Example 450, 2-(4-(6-((4-chloro-6-(methylcarbamoyl)pyridin-3-yl)methoxy)pyridin-2-yl)-2,3,6-trifluorobenzyl)-1-((1-(fluoromethyl)cyclopropyl)methyl)-1H-benzo[d]imidazole-6-carboxylic acid] |
| 0.07 nM | CC1(C#Cc2cnc(COc3cccc(-c4cc(F)c(Cc5nc6ccc(C(=O)O)cc6n5C[C@@H]5CCO5)cc4F)n3)s2)COC1 [Example 115, (S)-2-(2,5-difluoro-4-(6-((5-((3-methyloxetan-3-yl)ethynyl)thiazol-2-yl)methoxy)pyridin-2-yl)benzyl)-1-(oxetan-2-ylmethyl)-1H-benzo[d]imidazole-6-carboxylic acid] |
| 0.311 nM | COc1nnc(COc2cccc(-c3cc(F)c(Cc4nc5ccc(C(=O)O)cc5n4C4COCC4(C)C)c(F)c3F)n2)s1 (stereo not drawn) [Example 282, 1-(4,4-dimethyltetrahydrofuran-3-yl)-2-(2,3,6-trifluoro-4-(6-((5-methoxy-1,3,4-thiadiazol-2-yl)methoxy)pyridin-2-yl)benzyl)-1H-benzo[d]imidazole-6-carboxylic acid] |
| 0.246 nM | CC1(C#Cc2nnc(COc3cccc(-c4cc(F)c(Cc5nc6ccc(C(=O)O)cc6n5C[C@@H]5CCO5)cc4F)n3)s2)CC1 [Example 321, (S)-2-(2,5-difluoro-4-(6-((5-((1-methylcyclopropyl)ethynyl)-1,3,4-thiadiazol-2-yl)methoxy)pyridin-2-yl)benzyl)-1-(oxetan-2-ylmethyl)-1H-benzo[d]imidazole-6-carboxylic acid] |
| 0.14 nM | CNC(=O)c1cc(Cl)c(COc2cccc(-c3cc(F)c(Cc4nc5ccc(C(=O)O)cc5n4C[C@@H]4CCO4)cc3F)n2)cn1 [Example 46, (S)-2-(4-(6-((4-chloro-6-(methylcarbamoyl)pyridin-3-yl)methoxy)pyridin-2-yl)-2,5-difluorobenzyl)-1-(oxetan-2-ylmethyl)-1H-benzo[d]imidazole-6-carboxylic acid] |
| 0.24 nM | C[C@H](C#N)NC(=O)c1cc(Cl)c(COc2cccc(-c3cc(F)c(Cc4nc5ccc(C(=O)O)cc5n4C[C@@H]4CCO4)cc3F)n2)cn1 [Example 200, 2-(4-(6-((4-chloro-6-(((R)-1-cyanoethyl)carbamoyl)pyridin-3-yl)methoxy)pyridin-2-yl)-2,5-difluorobenzyl)-1-(((S)-oxetan-2-yl)methyl)-1H-benzo[d]imidazole-6-carboxylic acid] |
| 0.105 nM | CC1(C)COCC1n1c(Cc2cc(F)c(-c3cccc(OCc4ncc(C(F)(F)F)s4)n3)cc2F)nc2c(F)cc(C(=O)O)cc21 (stereo not drawn) [Example 437, 2-(2,5-difluoro-4-(6-((5-(trifluoromethyl)thiazol-2-yl)methoxy)pyridin-2-yl)benzyl)-1-(4,4-dimethyltetrahydrofuran-3-yl)-4-fluoro-1H-benzo[d]imidazole-6-carboxylic acid] |
| 0.05 nM | N#CC1(NC(=O)c2cc(Cl)c(COc3cccc(-c4cc(F)c(Cc5nc6c(F)cc(C(=O)O)cc6n5C[C@@H]5CCO5)cc4F)n3)cn2)COC1 [Example 188, (S)-2-(4-(6-((4-chloro-6-((3-cyanooxetan-3-yl)carbamoyl)pyridin-3-yl)methoxy)pyridin-2-yl)-2,5-difluorobenzyl)-4-fluoro-1-(oxetan-2-ylmethyl)-1H-benzo[d]imidazole-6-carboxylic acid] |
